Columns and labels:
human sebocytes = assay: Inhibition of sebocyte lipogenesis (14C-acetate incorporation); assay type: cell-based; settings: 0.00035%; 14C-acetate label in sebocytes, 20 h + 4 h incubation
Procedure: Secondary cultures of human sebocytes obtained from an adult […] were grown in 48-well tissue culture plates (Costar Corp.; Cambridge, Mass.) until confluent. Sebocyte growth medium consisted of Clonetics Keratinocyte Basal Medium (KBM) supplemented with 14 μg/ml bovine pituitary extract, 0.4 μg/ml hydrocortisone, 5 μg/ml insulin, 10 ng/ml epidermal growth factor, 1.2×10^−10 M cholera toxin, 100 units/ml penicillin, and 100 μg/ml streptomycin. All cultures were incubated at 37° C. in the presence of 7.5% CO2. Medium was changed three times per week.
On the day of experimentation, the growth medium was removed and the sebocytes washed three times with sterile Dulbecco's Modified Eagle Medium (DMEM; phenol red free). Fresh DMEM was added to each sample (triplicates) with 5 μL of gum mastic solubilized in ethanol. Controls consisted of addition of ethanol alone to phenol red. Each plate was returned to the incubator for 20 hours followed by the addition of ^14C-acetate buffer (5 mM final concentration, 56 mCi/mmol specific activity). […] Radioactive label remaining in the sebocytes was harvested and counted using a Beckman scintillation counter. […]
Controls consisted of ethanol alone and phenol red, which has estrogen-like activity. Statistical significance was calculated using the student's T-test.

procollagen I = assay: Procollagen I production by fibroblasts (slot blot); assay type: cell-based, human; settings: positive control, head says (0.01%)
Procedure: This example measured production of procollagen I by fibroblasts in response to treatment with gum mastic in solvent solutions, as well as control solutions.
Gum mastic solubilized in ethanol solvent (“gum mastic”), and obtained from Sigma were tested.
Neonatal human dermal fibroblasts were purchased from Clonetics Corp., San Diego, Calif. All materials for cell culture were purchased from Life Technologies, NY and used in passages 5-10. Cells were seeded at a density of approximately 7,500/well in the inner 48 wells of a 96-well plate in a medium containing DMEM (Dulbecco's Modified Eagle's Medium), high-glucose supplemented with 2 mM L-glutamine, 10% fetal bovine serum, and antibiotic and antimycotic solutions). Cells were then grown to confluence for 2 days. At confluence, the medium was removed and cells were washed with serum-free DMEM, and each well dosed with 200 μl of a solution of gum mastic in serum-free DMEM. Each dosing was replicated in the total of six wells. […]
The membrane was stained until color developed and the reaction stopped with 2 washes for 10 minutes in tap water. […] Blot was scanned on Bio-Rad GS-700 Image Analysis densitometer and volume (OD*mm^2) of color/slot determined using molecular analysis software. Fold increase was calculated as a ratio of densitometer reading for cells treated with a gum mastic concentration over control.

[1] = test system: glycosaminoglycan synthesis; assay: Glycosaminoglycan synthesis; assay type: cell-based; settings: positive control, concentration not given

Compound | % Reduction (human sebocytes) | Fold increase over control (procollagen I) | Average OD Reading (procollagen I; densitometer volume OD*mm^2, control 5400.5) | Fold increase over control [1] | Average OD Reading ([1]; control 4531.8)
O=S1(=O)OC(c2ccc(O)cc2)(c2ccc(O)cc2)c2ccccc21 [Phenol Red] | 29.1% |  |  |  | 
TGF-b |  | 1.4 fold | 7499.8 | 1.4 fold | 6382.3

From US6623728B2, “Cosmetic skin care compositions and containing gum mastic” (Unilever Home & Personal Care USA Division of Conopco, Inc., priority 2000, dated 2003)
